Test results reported in ChEMBL document CHEMBL2150859, “Design, synthesis, and evaluation of 3,5-disubstituted 7-azaindoles as Trk inhibitors with anticancer and antiangiogenic activities” (J Med Chem, 2012).
Calls of active or inactive are those of the source. No cut-off for these calls is given here.

Tests used:
[1] = target: cAMP-dependent protein kinase catalytic subunit alpha (Homo sapiens) (UniProt P17612); assay: Binding affinity to PKACalpha at 1 uM by high throughput binding assay relative to control
[2] = target: Dual specificity mitogen-activated protein kinase kinase 2 (Homo sapiens) (UniProt P36507); assay: Binding affinity to MEK2 at 1 uM by high throughput binding assay relative to control
[3] = system: MCF7; assay: Induction of apoptosis in human MCF7 cells assessed as decrease in Bcl-2 expression at 10 uM after 24 hrs by immunofluorescence staining method; format: functional, cell-based
[4] = target: Hypoxia-inducible factor 1-alpha (Homo sapiens) (UniProt Q16665); assay: Inhibition of HIF1alpha-mediated VEGF production in human MCF7 cells under hypoxic condition at 0.1 to 10 uM after 6 hrs; format: cell-based
[5] = target: Epidermal growth factor receptor (Homo sapiens) (UniProt P00533); assay: Binding affinity to EGFR at 1 uM by high throughput binding assay relative to control
[6] = system: MCF7; assay: Inhibition of hypoxia-induced HIF1alpha expression in human MCF7 cells after 6 hrs; format: functional, cell-based
[7] = target: 3-phosphoinositide-dependent protein kinase 1 (Homo sapiens) (UniProt O15530); assay: Binding affinity to PDPK1 at 1 uM by high throughput binding assay relative to control
[8] = target: Serine/threonine-protein kinase PLK3 (Homo sapiens) (UniProt Q9H4B4); assay: Binding affinity to PLK3 at 1 uM by high throughput binding assay relative to control
[9] = target: Serine/threonine-protein kinase PAK 1 (Homo sapiens) (UniProt Q13153); assay: Binding affinity to PAK1 at 1 uM by high throughput binding assay relative to control
[10] = target: T1, High affinity nerve growth factor receptor (Homo sapiens, UniProt P04629); details: MCF7, 0.1 to 10 uM
Target sequence in this assay (P04629 33-796 limits assumed): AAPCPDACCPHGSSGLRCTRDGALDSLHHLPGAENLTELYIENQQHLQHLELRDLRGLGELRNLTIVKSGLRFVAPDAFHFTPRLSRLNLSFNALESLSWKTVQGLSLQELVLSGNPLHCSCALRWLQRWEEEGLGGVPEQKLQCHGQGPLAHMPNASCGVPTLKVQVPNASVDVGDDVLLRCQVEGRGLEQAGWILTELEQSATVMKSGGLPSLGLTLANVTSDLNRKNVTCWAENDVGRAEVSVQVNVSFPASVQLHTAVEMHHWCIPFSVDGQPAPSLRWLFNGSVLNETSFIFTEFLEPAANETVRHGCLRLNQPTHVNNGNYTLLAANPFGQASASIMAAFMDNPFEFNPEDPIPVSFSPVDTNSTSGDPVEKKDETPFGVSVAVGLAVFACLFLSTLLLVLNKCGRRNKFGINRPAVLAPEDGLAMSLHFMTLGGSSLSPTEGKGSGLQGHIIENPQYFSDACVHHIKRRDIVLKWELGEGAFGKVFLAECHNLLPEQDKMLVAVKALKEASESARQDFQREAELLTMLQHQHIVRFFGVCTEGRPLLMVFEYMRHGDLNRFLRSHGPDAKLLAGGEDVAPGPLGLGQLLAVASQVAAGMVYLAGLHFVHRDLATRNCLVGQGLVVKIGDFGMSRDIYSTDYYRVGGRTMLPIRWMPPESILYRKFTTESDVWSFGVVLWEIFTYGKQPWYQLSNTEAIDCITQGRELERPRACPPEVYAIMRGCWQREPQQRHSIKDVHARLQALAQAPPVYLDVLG
Description: Inhibition of TRKA phosphorylation in human MCF7 cells at 0.1 to 10 uM by Western blot analysis

[11] = target: RAC-beta serine/threonine-protein kinase (Homo sapiens) (UniProt P31751); assay: Binding affinity to AKT2 at 1 uM by high throughput binding assay relative to control
[12] = target: Tyrosine-protein kinase ABL1 (Homo sapiens) (UniProt P00519); assay: Binding affinity to ABL1 at 1 uM by high throughput binding assay relative to control
[13] = system: HUVEC; assay: Antiangiogenic activity in HUVEC assessed as inhibition of wound-induced cell migration after 16 hrs; format: functional, cell-based; details: Homo sapiens
[14] = system: MCF7; assay: Induction of apoptosis in human MCF7 cells assessed as DNA strand breaks at 10 uM after 24 hrs by TUNEL assay; format: functional, cell-based
[15] = target: Rho-associated protein kinase 2 (Homo sapiens) (UniProt O75116); assay: Binding affinity to ROCK2 at 1 uM by high throughput binding assay relative to control
[16] = system: MCF7; assay: Induction of apoptosis in human MCF7 cells assessed as increase in cleaved caspase-3 expression at 10 uM after 24 hrs by immunofluorescence staining method; format: functional, cell-based
[17] = target: Fibroblast growth factor receptor 2 (Homo sapiens) (UniProt P21802); assay: Binding affinity to FGFR2 at 1 uM by high throughput binding assay relative to control
[18] = system: MCF7; assay: Induction of apoptosis in human MCF7 cells assessed as nuclear condensation at 10 uM after 24 hrs by DAPI staining; format: functional, cell-based
[19] = target: Tyrosine-protein kinase JAK2 (Homo sapiens) (UniProt O60674); assay: Binding affinity to JAK2 at 1 uM by high throughput binding assay relative to control
[20] = target: Dual specificity mitogen-activated protein kinase kinase 1 (Homo sapiens) (UniProt Q02750); assay: Binding affinity to MEK1 at 1 uM by high throughput binding assay relative to control
[21] = target: RAC-alpha serine/threonine-protein kinase (Homo sapiens) (UniProt P31749); assay: Binding affinity to AKT1 at 1 uM by high throughput binding assay relative to control
[22] = target: T1, High affinity nerve growth factor receptor; assay: Inhibition of TRKA assessed as [gamma33P]ATP incorporation into substrate
[23] = target: T1, High affinity nerve growth factor receptor; details: MCF7, 0.1 to 10 uM; remark: listed apart in the source
Target sequence in this assay (P04629 33-796 limits assumed): as above
Description: Inhibition of TRKA-induced AKT phosphorylation in human MCF7 cells at 0.1 to 10 uM by Western blot analysis

[24] = system: SK-BR-3; assay: Cytotoxicity against human SKBR3 cells after 48 hrs by MTT assay; format: functional, cell-based
[25] = target: Hepatocyte growth factor receptor (Homo sapiens) (UniProt P08581); assay: Binding affinity to MET at 1 uM by high throughput binding assay relative to control
[26] = system: MCF7; assay: Induction of apoptosis in human MCF7 cells assessed as nuclear fragmentation at 10 uM after 24 hrs by DAPI staining; format: functional, cell-based
[27] = system: MCF7; assay: Induction of apoptosis in human MCF7 cells assessed as increase in cytochrome C expression at 10 uM after 24 hrs by immunofluorescence staining method; format: functional, cell-based
[28] = target: Serine/threonine-protein kinase pim-1 (Homo sapiens) (UniProt P11309); assay: Binding affinity to PIM1 at 1 uM by high throughput binding assay relative to control
[29] = target: Aurora kinase B (Homo sapiens) (UniProt Q96GD4); assay: Binding affinity to AURKB at 1 uM by high throughput binding assay relative to control
[30] = target: Aurora kinase A (Homo sapiens) (UniProt O14965); assay: Binding affinity to AURKA at 1 uM by high throughput binding assay relative to control
[31] = system: MCF7; assay: cells; details: Homo sapiens, MCF7, 48 h
Description: (§1) Cytotoxicity against human MCF7 cells after 48 hrs by MTT assay

[32] = target: BDNF/NT-3 growth factors receptor (Homo sapiens) (UniProt Q16620); assay: Binding affinity to TRKB at 1 uM by high throughput binding assay relative to control
[33] = system: MCF7; assay: Cytotoxicity against human MCF7 cells assessed as growth inhibition at 0.1 to 50 uM after 48 hrs by MTT assay; format: functional
[34] = system: MCF7; assay: Induction of apoptosis in human MCF7 cells assessed as increase in Bax expression at 10 uM after 24 hrs by immunofluorescence staining method; format: functional, cell-based
[35] = target: Mitogen-activated protein kinase 14 (Homo sapiens) (UniProt Q16539); assay: Binding affinity to P38alpha at 1 uM by high throughput binding assay relative to control
[36] = target: Glycogen synthase kinase-3 beta (Homo sapiens) (UniProt P49841); assay: Binding affinity to GSK3beta at 1 uM by high throughput binding assay relative to control
[37] = target: T2, Mast/stem cell growth factor receptor Kit (Homo sapiens, UniProt P10721); assay: Binding affinity to KIT at 1 uM by high throughput binding assay relative to control
[38] = system: MCF7; details: Homo sapiens
Description: as §1

[39] = target: Serine/threonine-protein kinase B-raf (Homo sapiens) (UniProt P15056); assay: Binding affinity to BRAF at 1 uM by high throughput binding assay relative to control
[40] = target: Phosphatidylinositol 4,5-bisphosphate 3-kinase catalytic subunit alpha isoform (Homo sapiens, UniProt P42336); assay: Binding affinity to PI3KCA at 1 uM by high throughput binding assay relative to control
[41] = system: HUVEC; assay: Antiangiogenic activity against HUVEC assessed as inhibition of VEGF-induced tube formation after 10 hrs by phase-contrast microscopic analysis; format: functional, cell-based; details: Homo sapiens
[42] = target: Mitogen-activated protein kinase 3 (Homo sapiens) (UniProt P27361); assay: Binding affinity to ERK1 at 1 uM by high throughput binding assay relative to control
[43] = target: Serine/threonine-protein kinase PLK1 (Homo sapiens) (UniProt P53350); assay: Binding affinity to PLK1 at 1 uM by high throughput binding assay relative to control
[44] = target: Platelet-derived growth factor receptor alpha (Homo sapiens) (UniProt P16234); assay: Binding affinity to PDGFRalpha at 1 uM by high throughput binding assay relative to control
[45] = target: Cyclin-dependent kinase 19 (Homo sapiens) (UniProt Q9BWU1); assay: Binding affinity to CDK11 at 1 uM by high throughput binding assay relative to control
[46] = target: Focal adhesion kinase 1 (Homo sapiens) (UniProt Q05397); assay: Binding affinity to FAK at 1 uM by high throughput binding assay relative to control
[47] = target: T2, Mast/stem cell growth factor receptor Kit; assay: Inhibition of KIT by radiometric kinase assay

T2 sequence (P10721 whole entry): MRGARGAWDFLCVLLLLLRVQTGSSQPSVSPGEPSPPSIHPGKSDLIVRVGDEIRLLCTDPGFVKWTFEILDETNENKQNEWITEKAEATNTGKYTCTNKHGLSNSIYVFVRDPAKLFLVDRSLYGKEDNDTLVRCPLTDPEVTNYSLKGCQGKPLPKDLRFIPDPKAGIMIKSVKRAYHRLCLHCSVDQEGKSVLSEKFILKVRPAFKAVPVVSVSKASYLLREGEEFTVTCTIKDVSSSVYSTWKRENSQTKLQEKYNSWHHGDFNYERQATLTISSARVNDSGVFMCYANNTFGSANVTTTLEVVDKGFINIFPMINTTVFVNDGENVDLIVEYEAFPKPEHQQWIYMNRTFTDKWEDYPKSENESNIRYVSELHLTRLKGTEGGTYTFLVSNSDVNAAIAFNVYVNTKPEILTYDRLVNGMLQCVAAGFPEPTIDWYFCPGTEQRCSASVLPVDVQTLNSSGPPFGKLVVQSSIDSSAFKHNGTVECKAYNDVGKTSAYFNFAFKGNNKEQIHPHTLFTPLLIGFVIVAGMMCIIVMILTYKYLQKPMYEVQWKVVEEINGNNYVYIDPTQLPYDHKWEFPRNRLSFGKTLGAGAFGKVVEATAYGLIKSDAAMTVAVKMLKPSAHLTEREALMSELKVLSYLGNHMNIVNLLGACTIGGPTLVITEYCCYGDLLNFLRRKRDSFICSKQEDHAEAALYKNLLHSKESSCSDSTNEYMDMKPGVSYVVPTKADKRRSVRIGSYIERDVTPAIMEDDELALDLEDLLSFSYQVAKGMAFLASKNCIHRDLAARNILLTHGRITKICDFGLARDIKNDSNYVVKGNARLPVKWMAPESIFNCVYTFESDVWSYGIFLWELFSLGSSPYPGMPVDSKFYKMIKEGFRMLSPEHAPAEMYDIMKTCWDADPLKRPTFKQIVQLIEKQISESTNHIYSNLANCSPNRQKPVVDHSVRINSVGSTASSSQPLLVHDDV
Chain of RAC-beta serine/threonine-protein kinase (Homo sapiens) (P31751 whole entry): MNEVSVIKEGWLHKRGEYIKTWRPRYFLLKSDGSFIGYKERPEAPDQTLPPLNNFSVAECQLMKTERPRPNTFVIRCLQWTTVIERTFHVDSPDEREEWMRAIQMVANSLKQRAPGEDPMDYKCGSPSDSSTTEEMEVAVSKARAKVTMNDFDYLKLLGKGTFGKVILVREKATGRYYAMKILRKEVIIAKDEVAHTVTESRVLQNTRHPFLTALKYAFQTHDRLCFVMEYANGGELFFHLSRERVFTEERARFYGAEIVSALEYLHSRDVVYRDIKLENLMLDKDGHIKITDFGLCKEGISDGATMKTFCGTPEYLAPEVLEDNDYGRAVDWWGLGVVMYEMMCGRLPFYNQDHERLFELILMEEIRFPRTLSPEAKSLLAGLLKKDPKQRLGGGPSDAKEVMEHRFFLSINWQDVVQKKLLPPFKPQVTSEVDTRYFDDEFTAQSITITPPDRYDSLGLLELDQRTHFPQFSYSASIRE
Chain of Phosphatidylinositol 4,5-bisphosphate 3-kinase catalytic subunit alpha isoform (P42336 whole entry, canonical isoform): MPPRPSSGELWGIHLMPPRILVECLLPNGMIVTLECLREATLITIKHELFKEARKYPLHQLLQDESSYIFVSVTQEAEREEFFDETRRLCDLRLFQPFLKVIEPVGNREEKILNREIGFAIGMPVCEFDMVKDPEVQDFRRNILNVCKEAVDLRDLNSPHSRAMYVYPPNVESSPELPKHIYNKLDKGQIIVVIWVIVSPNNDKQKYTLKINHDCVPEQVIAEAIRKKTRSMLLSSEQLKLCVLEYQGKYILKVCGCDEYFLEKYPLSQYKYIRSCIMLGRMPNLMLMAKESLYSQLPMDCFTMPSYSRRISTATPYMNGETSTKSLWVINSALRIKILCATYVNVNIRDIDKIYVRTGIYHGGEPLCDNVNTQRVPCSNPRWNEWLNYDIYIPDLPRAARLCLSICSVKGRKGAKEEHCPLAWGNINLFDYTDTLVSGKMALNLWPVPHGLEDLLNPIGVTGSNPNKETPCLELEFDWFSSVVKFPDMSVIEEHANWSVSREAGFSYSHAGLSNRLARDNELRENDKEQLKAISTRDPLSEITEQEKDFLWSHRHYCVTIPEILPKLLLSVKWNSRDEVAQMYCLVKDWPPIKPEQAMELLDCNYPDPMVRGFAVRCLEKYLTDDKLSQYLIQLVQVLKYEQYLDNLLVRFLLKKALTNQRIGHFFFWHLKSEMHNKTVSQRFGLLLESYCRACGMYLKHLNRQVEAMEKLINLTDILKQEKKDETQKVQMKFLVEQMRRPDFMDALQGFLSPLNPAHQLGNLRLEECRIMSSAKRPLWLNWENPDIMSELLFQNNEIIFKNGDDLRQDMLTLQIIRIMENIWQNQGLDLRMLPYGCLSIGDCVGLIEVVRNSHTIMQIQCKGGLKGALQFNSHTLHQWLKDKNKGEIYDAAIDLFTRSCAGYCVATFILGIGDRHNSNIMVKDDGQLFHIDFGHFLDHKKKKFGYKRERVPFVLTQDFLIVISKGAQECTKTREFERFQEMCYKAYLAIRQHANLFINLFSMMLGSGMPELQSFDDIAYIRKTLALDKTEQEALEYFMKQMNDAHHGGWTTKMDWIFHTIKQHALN
Chain of Rho-associated protein kinase 2 (Homo sapiens) (O75116 whole entry, looked up): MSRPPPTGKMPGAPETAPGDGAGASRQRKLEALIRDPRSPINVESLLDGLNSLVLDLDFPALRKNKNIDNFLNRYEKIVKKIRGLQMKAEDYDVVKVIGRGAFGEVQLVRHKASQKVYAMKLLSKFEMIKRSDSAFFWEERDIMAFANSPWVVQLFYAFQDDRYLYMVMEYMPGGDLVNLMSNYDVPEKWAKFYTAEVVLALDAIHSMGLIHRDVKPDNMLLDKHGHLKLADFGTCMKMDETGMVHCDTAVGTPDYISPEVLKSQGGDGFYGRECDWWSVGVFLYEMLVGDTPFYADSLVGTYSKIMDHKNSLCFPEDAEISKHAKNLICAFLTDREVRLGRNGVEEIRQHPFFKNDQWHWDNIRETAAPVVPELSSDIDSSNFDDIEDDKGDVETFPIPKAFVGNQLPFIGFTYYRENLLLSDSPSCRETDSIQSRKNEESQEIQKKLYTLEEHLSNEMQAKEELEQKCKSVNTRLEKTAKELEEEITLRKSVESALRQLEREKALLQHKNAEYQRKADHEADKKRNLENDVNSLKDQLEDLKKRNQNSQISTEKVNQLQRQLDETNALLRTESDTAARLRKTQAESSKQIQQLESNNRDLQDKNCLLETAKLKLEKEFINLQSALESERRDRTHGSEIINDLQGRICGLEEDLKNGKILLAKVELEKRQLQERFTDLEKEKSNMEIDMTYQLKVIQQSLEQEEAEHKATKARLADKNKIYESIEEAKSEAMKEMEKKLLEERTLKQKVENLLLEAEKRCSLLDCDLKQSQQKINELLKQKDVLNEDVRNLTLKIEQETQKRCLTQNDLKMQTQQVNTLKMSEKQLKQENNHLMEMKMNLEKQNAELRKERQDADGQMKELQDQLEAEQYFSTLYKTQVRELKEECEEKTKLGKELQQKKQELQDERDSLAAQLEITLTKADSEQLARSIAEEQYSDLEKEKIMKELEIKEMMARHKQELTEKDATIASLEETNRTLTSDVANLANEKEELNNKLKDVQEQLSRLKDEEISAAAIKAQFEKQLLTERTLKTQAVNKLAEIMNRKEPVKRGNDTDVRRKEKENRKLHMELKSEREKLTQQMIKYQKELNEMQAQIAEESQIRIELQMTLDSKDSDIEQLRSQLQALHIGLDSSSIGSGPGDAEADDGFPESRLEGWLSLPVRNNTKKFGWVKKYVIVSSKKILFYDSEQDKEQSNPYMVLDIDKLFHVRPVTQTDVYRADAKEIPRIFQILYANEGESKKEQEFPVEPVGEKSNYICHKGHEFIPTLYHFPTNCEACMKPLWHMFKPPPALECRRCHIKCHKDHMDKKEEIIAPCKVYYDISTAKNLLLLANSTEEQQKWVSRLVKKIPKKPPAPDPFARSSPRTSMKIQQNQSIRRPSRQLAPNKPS
Chain of Mitogen-activated protein kinase 14 (Homo sapiens) (Q16539 whole entry): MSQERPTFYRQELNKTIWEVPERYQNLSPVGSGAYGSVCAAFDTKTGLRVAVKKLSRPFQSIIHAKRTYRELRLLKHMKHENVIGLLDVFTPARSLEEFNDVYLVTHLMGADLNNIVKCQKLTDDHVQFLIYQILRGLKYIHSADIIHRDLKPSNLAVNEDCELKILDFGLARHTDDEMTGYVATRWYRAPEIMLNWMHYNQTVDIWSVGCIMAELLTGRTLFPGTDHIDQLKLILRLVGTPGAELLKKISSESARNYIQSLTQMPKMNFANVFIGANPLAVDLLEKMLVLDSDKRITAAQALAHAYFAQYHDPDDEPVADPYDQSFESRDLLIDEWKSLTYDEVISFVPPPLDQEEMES

Activity [1]: 88%
Activity [2]: 100%
inhibition [4]: Active
Activity [5]: 100%
Activity [7]: 90%
Activity [8]: 75%
Activity [9]: 79%
inhibition [10]: Active
Activity [11]: 100%
Activity [12]: 81%
Activity [15]: 50%
Activity [17]: 61%
Activity [19]: 34%
Activity [20]: 100%
Activity [21]: 94%
IC50 [22]: 1.67 nM
inhibition [23]: Active
Activity [25]: 96%
Activity [28]: 97%
Activity [29]: 85%
Activity [30]: 100%
IC50 [31]: 4200 nM
Activity [32]: 1.2%
Activity [35]: 100%
Activity [36]: 81%
Activity [37]: 3%
Activity [39]: 100%
Activity [40]: 64%
Activity [42]: 100%
Activity [43]: 100%
Activity [44]: 69%
Activity [45]: 26%
Activity [46]: 88%
IC50 [47]: 145 nM
Structure (SMILES): Nc1cc(NS(=O)(=O)c2cccc(C(F)(F)F)c2)cc(-c2cnc3[nH]cc(-c4ccncc4)c3c2)c1
Activity [3]: Active
inhibition [6]: Dose-dependent effect
inhibition [13]: Dose-dependent effect
Activity [14]: Active
Activity [16]: Active
Activity [18]: Active
Activity [24]: Dose-dependent effect
Activity [26]: Active
Activity [27]: Active
growth inhibition (GI) [33]: 40%
Activity [34]: Active
Activity [38]: Dose-dependent effect
inhibition [41]: Dose-dependent effect
